# Legend:
# B16 = assay: in vitro cytotoxicity (LC50); format: cell-based; settings: read-out: LC50 (concentration lethal to 50% of cells)
# [1] = system: LL/2 tumours and lung metastases; assay: syngeneic Lewis Lung Carcinoma (LL/2) tumour growth and spontaneous metastasis model; format: in vivo, mice
# Description: (§1) In the orthotopic Hep3b2.1-7 human liver cancer model, treatment of mice (n=10) began 14 days after inoculation of 2.5 × 10^6 cells. […] To initiate tumour xenografts, MDA-MB-231, PC3, Cal27 and HepG2 cells were injected s.c. into nude mice (n=8) at 4, 5, 2 and 2 × 10^7 cells ml^−1, respectively. […] In the B16F0 lung metastasis model, 2 × 10^5 cells were injected via the tail vein of C57Bl6 mice (n=8). […] Surface lung macrometastases were counted for each group (n=9) upon study termination. In the intrasplenic HT-29 xenograft model, 1 × 10^6 cells in 100 μl were injected into the spleen. […] Solid tumours were measured in two dimensions (length and width) and the tumour volume (cm^3) was calculated using the equation: V=length × width^2 × π/6. The anti-tumour activity was expressed as percent tumour growth inhibition (%TGI). Further details are available in Supplementary Methods. […]
# (§2) efficacy/PK study) using either a once or twice weekly dosing schedule (see figure legends for dose schedules in each study) for up to three weeks. […]
# In the LL/2 mouse model, treatment of mice commenced on the day of inoculation (Day 0). Mice inoculated subcutaneously were treated with either Vehicle Control […]
# once weekly or Sorafenib (60mg/kg, once daily, p.o.). The treatments were continued for three weeks. The lungs were excised from all mice at the time of culling for metastasis […]
# count determination. […]
# (§3) In relevant models, solid tumours were measured in two dimensions (length and width) and the tumour volume (mm3) calculated using the equation V = length × width2 × π/6.The anti-tumour activity was assessed by the comparison of the mean tumour volume of the treated groups to the mean tumour volume of the control group and expressed as the percent Tumour Growth Inhibition (TGI) using the equation:
# (§4) %TGI = (1-((VendPG545 - VstartPG545) / (VendControl - VstartControl)))*100 VendPG545 = Ending Tumour Volume of PG545-treated animal
# (§5) VstartPG545 = Starting Tumour Volume of PG545-treated animal
# (§6) VendControl = Ending Tumour Volume of Control animal
# (§7) VstartControl = Starting Tumour Volume of Control animal […]
# (§8) After collection, 0.2 mL of […]
# (§9) whole blood was added to a glass scintillation vial to which 1 mL Solvable was added.
# (§10) Samples were incubated for one hour at 55-60°C. 0.1 mL of 0.1 M EDTA-di-sodium salt solution and 0.3 mL to 0.5 mL of 30% hydrogen peroxide in 0.1 mL aliquots were added to the sample. Samples were gently agitated between additions to allow reaction foaming to subside. Samples were incubated for 30 minutes at room temperature. Vials were capped tightly and incubated again at 55 – 60 °C fo r 1 hour. Samples were cooled to room temperature and 15 mL of ULTIMA Gold added.
# For tumour samples, 100 mg of tissue was placed in a 20 mL glass scintillation vial and 2 mL of Solvable added. The samples were incubated at 50 - 60 °C for 1 hour with occasional swirling. Samples were cooled to room temperature and for tumours, 0.3 mL of 30% hydrogen peroxide in three aliquots of 0.1 mL were added. The samples were again incubated at 50 - 60 °C for 1 hour with occasional swirling. Tumours samples were […]
# Hep3b2.1-7 tumours = assay: orthotopic Hep3b2.1-7 human liver cancer model; format: in vivo, mice
# Description: as §1
# In the Hep3b2.1-7 model, the cells resuspended in HBSS:MatrigelTM (1:1, v/v) to a final concentration of 5 x 10^8 cells/mL were inoculated following an incision into the skin directly over the liver to expose the main lobe of the liver. The needle was introduced into the main lobe of the liver, where 2.5 x 106 Hep3b2.1-7 cells (in 5 µL with 50% Matrigel) were discharged. The treatment of mice began 24 days after inoculation of the […]
# either a once or twice weekly dosing schedule (see figure legends for dose schedules in each study) for up to three weeks. […]
# as §2, §3, §4, §5, §6, §7, §8, §9
# as §10, with “Vials were capped tightly and incubated again at 55 – 60 °C fo r 1 hour. Samples were cooled to room temperature and 15 mL of ULTIMA Gold added.” left out
# [2] = toxicity / toxicology studies; format: in vivo
# coagulation = system: coagulation; parameters: method as in Dredge et al, 2010; settings: compared with PI-88 or earlier PG500 series compounds; ref Dredge et al, 2010; cited from earlier work
# HepG2 cells = assay: in vitro cytotoxicity (LC50); format: cell-based; settings: read-out: LC50 (concentration lethal to 50% of cells)
# [3] = system: Lewis Lung Carcinoma (LL/2) tumour angiogenesis; assay: CD31 staining of primary LL/2 tumours; format: in vivo, mice
# Description: Angiogenesis in vivo was evaluated using the Angiosponge model in which subcutaneously implanted, agarose-captured FGF2 gelfoam sterile sponges (Pfizer, West Ryde, Australia) induces vascularisation over a 10-day period responsive to angiogenesis inhibition as determined by the number of vessels with identifiable lumen that stained positive for CD31/PECAM-1, an antigen present specifically on endothelial cells ([McCarty et al, 2002]). PG545 was administered s.c. on the flank distal to the AngioSponge implant. This method was also used to examine five medium-sized primary tumours from each group of Lewis Lung Carcinoma (LL/2)-bearing mice.
# as §1, with “termination.” for “termination. In the intrasplenic HT-29 xenograft model, 1 × 10^6 cells in 100 μl were injected into the spleen.”, “(%TGI).” for “(%TGI). Further details are available in Supplementary Methods.”
smiles,measurement,setting,value
CC(C)CCC[C@@H](C)[C@H]1CCC2C3CCC4C[C@@H](O[C@@H]5O[C@H](COS(=O)(=O)[O-])[C@@H](O[C@H]6O[C@H](COS(=O)(=O)[O-])[C@@H](O[C@H]7O[C@H](COS(=O)(=O)[O-])[C@@H](O[C@H]8O[C@H](COS(=O)(=O)[O-])[C@@H](OS(=O)(=O)[O-])[C@H](OS(=O)(=O)[O-])[C@H]8OS(=O)(=O)[O-])[C@H](OS(=O)(=O)[O-])[C@H]7OS(=O)(=O)[O-])[C@H](OS(=O)(=O)[O-])[C@H]6OS(=O)(=O)[O-])[C@H](OS(=O)(=O)[O-])[C@H]5OS(=O)(=O)[O-])CC[C@]4(C)C3CC[C@@]21C.[Na+].[Na+].[Na+].[Na+].[Na+].[Na+].[Na+].[Na+].[Na+].[Na+].[Na+].[Na+].[Na+] (some centres unmarked) [PG545],CC50,B16,> 200 µM
same,TGI (primary tumour),[1]; 20 mg kg^−1 once-weekly,46%
same,TGI / inhibition (lung metastases),[1]; 20 mg kg^−1 once-weekly,96%
same,TGI (lung metastases),[1]; 20 mg kg^−1 single dose,67%
same,TGI (primary tumour),[1]; 20 mg kg^−1 single dose,15%
same,TGI (lung metastases),[1]; 40 mg kg^−1 once-weekly,67%
same,TGI (primary tumour),[1]; 40 mg kg^−1 once-weekly,57%
same,TGI (primary tumour),[1]; 40 mg kg^−1 single dose,33%
same,TGI,Hep3b2.1-7 tumours; 20 mg kg^−1 loading dose then 10 mg kg^−1 twice-weekly,55%
same,TGI,Hep3b2.1-7 tumours; 20 mg kg^−1 twice-weekly s.c.,52%
same,TGI,Hep3b2.1-7 tumours; once-weekly 20 mg kg^−1 followed by 10 mg kg^−1,65%
same,activated partial thromboplastin time,"[2]; high doses, toxicology studies, reversible (data not shown)",increased activated partial thromboplastin time
same,body weight loss in other species,[2]; toxicity studies (data not shown),did not lead to significant body weight loss
same,anti-coagulant properties,coagulation,mild anti-coagulant properties
same,CC50,HepG2 cells,> 100 µM
same,decrease in CD31 endothelial staining in tumours,[3]; 20 mg kg^−1 once-weekly s.c.,30%
same,decrease in CD31 endothelial staining in tumours,[3]; 40 mg kg^−1 once-weekly s.c.,22%

# From publication PMC3049593 (British Journal of Cancer, 2011)
